The values below come from patent US20010047099A1, “4-aminopicolinates and their use as herbicides” (priority 2000, published 2001).

Series [1] deals with chickweed (Stellaria media). Briefly: Postemergence herbicidal activity. Particulars: Stellaria media, post-emergence, 336 h, Table 1, visual, after 2 weeks, read-out: Post-emergent % Control STEME; for pest or weed control at 125 ppm: rate 125 ppm; for pest or weed control at 250 ppm: rate 250 ppm. In kind it is in vivo. The gist of the method:
(§1)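 Greenhouse plants at first or second true leaf stage sprayed to coverage with compound in acetone/water/isopropanol/DMSO/crop oil/surfactant mixture; 1 ppm ≈ 1 g/Ha. Plants sub-irrigated afterward. Injury scored visually after 2 weeks versus untreated plants, 0 (none) to 100% (complete kill).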

Series [2] concerns cocklebur (Xanthium strumarium). Briefly: Postemergence herbicidal activity. In kind it is in vivo. Particulars: for pest or weed control at 125 ppm / pest or weed control at 250 ppm: Xanthium strumarium, post-emergence, 336 h, Table 1, visual, after 2 weeks, read-out: Post-emergent % Control XANST; for Post-emergent Evaluation - % control XANST: Table 4. Summed up:
as §1

Series [3] concerns wild buckwheat (Polygonum convolvulus). In words: Postemergence herbicidal activity. In kind it is in vivo. Particulars: Fallopia convolvulus, post-emergence, 336 h, Table 1, visual, after 2 weeks, read-out: Post-emergent % Control POLCO; for pest or weed control at 125 ppm: rate 125 ppm; for pest or weed control at 250 ppm: rate 250 ppm. The gist of the method:
as §1

Series [4] concerns morningglory (Ipomoea hederacea). Briefly: Preemergence herbicidal activity. In kind it is in vivo. Particulars: Ipomoea, 504 h, Table 6 (headed Post-emergent; text: preemergence), after 3 weeks, read-out: % Control IPOHE; for pest or weed control at 560 ppm: rate 560 ppm. The gist of the method:
(§2)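 Test compounds in acetone/DMSO were diluted in water with 0.1% Tween 155 and sprayed onto the soil surface of freshly seeded pots (loam/sand 70:30, pH about 8.1). Plants grew in a greenhouse at about 23-29° C day under a 15 h photoperiod. Injury was scored visually after 3 weeks versus untreated plants, 0-100%.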

Series [5] has as its system pigweed (Amaranthus retroflexus). In words: Preemergence herbicidal activity. In kind it is in vivo. Particulars: Amaranthus retroflexus, 504 h, Table 6 (headed Post-emergent; text: preemergence), after 3 weeks, read-out: % Control AMARE; for pest or weed control at 560 ppm: rate 560 ppm. The gist of the method:
as §2

For series [6], the system named is velvetleaf (Abutilon theophrasti). In words: Preemergence herbicidal activity. Particulars: Abutilon theophrasti, 504 h, Table 6 (headed Post-emergent; text: preemergence), after 3 weeks, read-out: % Control ABUTH; for pest or weed control at 560 ppm: rate 560 ppm. In kind it is in vivo. The gist of the method: as §2
In series [7] the test system is Canada thistle (Cirsium arvense). In words: Range & Pasture Crop Testing (postemergence track sprayer). In kind it is in vivo. How it is done:
(§3) By applying the well-accepted probit analysis as described by J. Berkson in Journal of the […], 48, 565 (1953) and by D. Finney in “Probit Analysis” Cambridge University Press (1952), the above data can be used to calculate GR50 and GR80 values, which are defined as growth reduction factors that correspond to the effective dose of herbicide required to kill or control 50 percent or 80 percent, respectively, of a target plant.
(§4) Rates are calculated based upon 5 doses being applied. The high rate (X), followed by serial dilutions of 1/2×, 1/4×, 1/8× and 1/16×. Compound requirements are based upon the 187 L/ha carrier volume, specifications of the delivery system (Mandel track sprayer) and generating 24 mL of technical spray material to allow for the dilutions and overage in the sprayer. [formula]
(§5) All technical materials were formulated in 97:3 (acetone:DMSO) with 0.25% X-77. The total volume of solvent is maintained at less than 7%. An overhead Mandel track sprayer calibrated to deliver 187 L/ha was used for all treatment applications (postemergence). Picloram was included as a comparison treatment.
(§6) Solutions were applied with a mechanized track-sprayer at the following settings:
(§7) Spray height: 17 inches above top of plants
(§8) This provides an application volume of 187 L/ha.
(§9) Percent weed control (burn down) was evaluated 3 weeks after treatment. Visual control on a 0-100 linear scale was used, with 0 representing no control and 100 representing total control. Burn down ratings were taken for annual and perennial weed species.

The subject of series [8] is White Clover (Trifolium repens). The series is described as above. In kind it is in vivo. Particulars: Table 10. The procedure:
as §3, §4, §5, §6, §7, §8, §9

Series [9] relates to field bindweed (Convolvulus arvensis). Described as above. In kind it is in vivo. Particulars: Table 10; clover pasture; postemergence. How it is done: as §3, §4, §5, §6, §7, §8, §9
Series [10] relates to broadleaf dock (Rumex obtusifolia). The description is as above. In kind it is in vivo. Particulars: Table 9; rate 70 g/Ha; 3 weeks after treatment. How it is done:
as §4, §5, §6, §7, §8, §9

Series [11] relates to common ragweed (Ambrosia artemisiifolia). The series is described as above. Particulars: Table 9; rate 70 g/Ha; 3 week evaluation. In kind it is in vivo. How it is done: as §4, §5, §6, §7, §8, §9
Series [12] concerns crested wheatgrass (Agropyron cristatum) (grass crop). The series is described as above. In kind it is in vivo. Particulars: Table 9, rate 70 g/Ha, 3 weeks after treatment. How it is done:
as §4, §5, §6, §7, §8, §9

Series [13] has as its system pigweed (Amaranthus retroflexus). Briefly: Postemergence herbicidal activity. In kind it is in vivo. Particulars: Table 4. The gist of the method:
as §1

The test system of series [14] is velvetleaf (Abutillon theophrasti). In words: Postemergence herbicidal activity. Particulars: Table 4. In kind it is in vivo. The gist of the method:
as §1

For the next series, the system named is corn (Zea mays). In words: Postemergence herbicidal activity, selectivity to corn. In kind it is in vivo. Particulars: Table 4, crop (corn). How it is done:
(§10) Seeds of the desired test plant species were planted in Grace-Sierra MetroMix® 306 planting mixture, which typically has a pH of 6.0 to 6.8 and an organic matter content of about 30 percent, in plastic pots with a surface area of 64 square centimeters. When required to ensure good germination and healthy plants, a fungicide treatment and/or other chemical or physical treatment was applied. The plants were grown for 7-21 days in a greenhouse with an approximate 15 hr photoperiod which was maintained at about 23-29° C. during the day and 22-28° C. during the night. Nutrients and water were added on a regular basis and supplemental lighting was provided with overhead metal halide 1000-Watt lamps as necessary. The plants were employed for testing when they reached the first or second true leaf stage.
(§11) A weighed amount, determined by the highest rate to be tested, of each test compound was placed in a 20 mL glass vial and was dissolved in 4 mL of a 97:3 v/v (volume/volume) mixture of acetone and dimethyl sulfoxide (DMSO) to obtain concentrated stock solutions. […] The concentrated stock solutions obtained were diluted with an aqueous mixture containing acetone, water, isopropyl alcohol, DMSO, Atplus 411F crop oil concentrate, and Triton X-155 surfactant in a 48.5:39:10:1.5:1.0:0.02 v/v ratio to obtain spray solutions of known concentration. The solutions containing the highest concentration to be tested were prepared by diluting 2 mL aliquots of the stock solution with 13 mL of the mixture and lower concentrations were prepared by serial dilution of the stock solution. […]
(§12) The treated plants and control plants were placed in a greenhouse as described above and watered by sub-irrigation to prevent wash-off of the test compounds. After 2 weeks the condition of the test plants as compared with that of the untreated plants was determined visually and scored on a scale of 0 to 100 percent where 0 corresponds to no injury and 100 corresponds to complete kill.

The test system of series [15] is barnyardgrass (Echinochloa crus-galli). In words: Postemergence herbicidal activity. Particulars: Table 3; weeds in rice; rate 250 ppm. In kind it is in vivo. Summed up: as §1
In series [16] the test system is yellow nutsedge (Cyperus esculentus). In words: Postemergence herbicidal activity. In kind it is in vivo. Particulars: Table 3; weeds in rice; rate 250 ppm. Summed up:
as §1

The next series relates to rice (Oryza sativa). Briefly: Postemergence herbicidal activity, selectivity to rice. In kind it is in vivo. Particulars: Table 3; crop (rice); rate 250 ppm. The procedure: as §10, §11, §12

Structures are written as SMILES.

The term melting point denotes the temperature of the solid-liquid transition. `CC(C)OC(=O)c1nc(Cl)cc(N)c1Cl` [Compound 6, i-propyl 4-amino-3,6-dichloropyridine-2-carboxylate] had a melting point of 114 to 115 °C. Further, the pest or weed control at 125 ppm in series [1] amounted to 100%. Also, the pest or weed control at 125 ppm in series [2] (rate 125 ppm) turned out to be 100%. For the same compound, the pest or weed control at 125 ppm in series [3] is 100%. The pest or weed control at 280 ppm in [4] (rate 280 ppm) is 100%. Moreover, the pest or weed control at 280 ppm in series [5] (rate 280 ppm) stood at 100%. In [6] (rate 280 ppm), the pest or weed control at 280 ppm turned out to be 100%. Also, the “Post-emergent Evaluation - % control CIRAR” value in series [7] (Table 9, rate 70 g/Ha, 3 weeks after treatment) was determined as 95%. Further, the “GR80 CIRAR” value in series [7] (Table 10, clover pasture, postemergence) was less than 17.5 g/ha. In addition, in series [8], the “GR20 TRFRE” value is on record as 98.8 g/ha. In addition, the “GR80 CONAR” value in series [9] amounted to 98.8 g/ha. For the same compound, the “Post-emergent Evaluation - % control RUMOB” value in [10] was 100%. For the same compound, the “Post-emergent Evaluation - % control AMBEL” value in series [11] was 93%. Further, the “Post-emergent Evaluation - % control AGRCR” value in [12] stood at 30%.

As to `Nc1c(Cl)c(C(=O)O)nc(Cl)c1Br` [Compound 20, 4-Amino-3,6-dichloro-5-bromopyridine-2-carboxylic acid], the melting point was in the range of 201 to 202 °C. In [1], the pest or weed control at 250 ppm is 90%. Moreover, in series [2] (rate 250 ppm), the “Post-emergent Evaluation - % control XANST” value stood at 85% and the pest or weed control at 250 ppm is 85%. For the same compound, the “Post-emergent Evaluation - % control AMARE” value in series [13] (rate 250 ppm) worked out at 90%. For the same compound, in [14] (rate 250 ppm), the “Post-emergent Evaluation - % control ABUTH” value was found to be 70%. Moreover, the pest or weed control at 250 ppm in series [3] worked out at 50%. In addition, in the series on corn (Zea mays) (rate 250 ppm), the “Post-emergent Evaluation - % control ZEAMX” value is listed as 10%. For the same compound, in series [4], the pest or weed control at 560 ppm came out at 100%. Also, the pest or weed control at 560 ppm in [5] was determined as 100%. The pest or weed control at 560 ppm in [6] amounted to 100%.

`CCNc1cc(Cl)nc(C(=O)O)c1Cl` [Compound 27, 4-N-ethylamino-3,6-dichloropyridine-2-carboxylic acid] returned a melting point of 136 to 137 °C. Moreover, in series [15], the “post emergent evaluation - % control ECHCG” value was 70%. In series [1], the pest or weed control at 125 ppm was found to be 100%. In series [2] (rate 125 ppm), the pest or weed control at 125 ppm was determined as 85%. Moreover, the pest or weed control at 125 ppm in series [3] is 90%. For the same compound, the “post emergent evaluation - % control CYPES” value in series [16] was 50%. In addition, the “post emergent evaluation - % control ORYZA” value with rice (Oryza sativa) is on record as 40%. Further, the pest or weed control at 560 ppm in series [4] amounted to 100%. In addition, the pest or weed control at 560 ppm in series [5] was determined as 100%. For the same compound, the pest or weed control at 560 ppm in [6] was found to be 100%.

The compound `CN(C)c1cc(Cl)nc(C(=O)O)c1Cl` [Compound 33, 4-N,N-dimethylamino-3,6-dichloropyridine-2-carboxylic acid] registered a melting point of 110 °C. In addition, the pest or weed control at 250 ppm in series [1] was determined as 100%. Moreover, the “Post-emergent Evaluation - % control XANST” value in series [2] (rate 125 ppm) came out at 100%. The pest or weed control at 250 ppm in [2] (rate 250 ppm) was found to be 100%. Besides, the “Post-emergent Evaluation - % control AMARE” value in series [13] (rate 125 ppm) is 50%. In addition, in [14] (rate 125 ppm), the “Post-emergent Evaluation - % control ABUTH” value came to 80%. In series [3], the pest or weed control at 250 ppm turned out to be 100%. Moreover, the “Post-emergent Evaluation - % control ZEAMX” value in the series with corn (Zea mays) (rate 125 ppm) was 20%. Also, the pest or weed control at 560 ppm in series [4] stood at 100%. Moreover, in [5], the pest or weed control at 560 ppm was found to be 100%. For the same compound, the pest or weed control at 560 ppm in [6] stood at 98%.

`Nc1c(F)c(C(=O)O)nc(Cl)c1Cl` [Compound 43, 4-Amino-5,6-dichloro-3-fluoropyridine-2-carboxylic acid]: the melting point was 208 °C (dec.). In addition, in series [1], the pest or weed control at 125 ppm came to 85%. The “Post-emergent Evaluation - % control XANST” value in [2] (rate 250 ppm) was 85%. In addition, the pest or weed control at 125 ppm in [2] (rate 125 ppm) was 90%. The “Post-emergent Evaluation - % control AMARE” value in [13] (rate 250 ppm) came out at 90%. In addition, the “Post-emergent Evaluation - % control ABUTH” value in series [14] (rate 250 ppm) turned out to be 70%. Moreover, in [3], the pest or weed control at 125 ppm came out at 60%. In the series with corn (Zea mays) (rate 250 ppm), the “Post-emergent Evaluation - % control ZEAMX” value stood at 0%. Also, the pest or weed control at 140 ppm in series [4] (rate 140 ppm) came to 70%. The pest or weed control at 140 ppm in series [5] (rate 140 ppm) turned out to be 30%. Further, in [6] (rate 140 ppm), the pest or weed control at 140 ppm amounted to 80%.
